From publication PMC10485906, “Development of a Dihydroquinoline–Pyrazoline GluN2C/2D-Selective Negative Allosteric Modulator of the N-Methyl-D-aspartate Receptor” (ACS Chemical Neuroscience, 2023)
Where two headings read alike, the source gives them in different places.

Assays:
GluN1/GluN2D [1] = molecular target: GluN1/GluN2D (Rattus norvegicus, UniProt P35439+Q62645); assay: Whole-cell voltage-clamp recordings, HEK cells, GluN1/GluN2D (agonist dependence); assay type: cell-based
Source text: (§1) We previously described the actions of the GluN2C/GluN2D-preferring negative allosteric modulator DQP-1105 as dependent on glutamate (but not glycine) binding, in that DQP-1105 affinity increases after GluN1/GluN2D NMDARs bind glutamate.[32] […] The concentration-dependent relaxation is indicative of an agonist-induced increase in potency that leads to re-equilibration of the inhibitor after agonist binding induces an increase in inhibitor affinity. We investigated the glutamate dependence of compound 2i (GluN1/GluN2D, Figure 4; GluN1/GluN2C, Figure S2), DQP-1105 (Figure S1), and compound (S)-2a (DQP-69;[33]Figure S3) using the same protocols.
(§2) We preincubated cells with glycine and the inhibitor 2i (DQP-997-74) and compared inhibitor potency during the peak and steady-state current responses to glutamate application. […] To investigate the time course of 2i inhibition, we fitted the relaxation of the current response with a single exponential function. If the current response time course reflects 2i binding, then the reciprocal of τinhibition should be linearly related to its concentration, with the slope equal to kON and intercept equal to kOFF. […] The deactivation of GluN1/GluN2D receptors (5.3 ± 0.2 s) was slowed by the presence of compound 2i when applied at concentrations of 0.1 μM (7.3 ± 0.3 s; p = 0.017) and 0.3 μM (10.5 ± 1.0 s; p = 0.002) but not at 0.03 μM (5.6 ± 0.3 s; p = 0.518; Figure 4E). […] This phenomenon was previously discovered for QNZ-46, a glutamate-dependent GluN2C/2D-selective inhibitor with a different structural core.[42] As proposed in that study, the prolonged deactivation may indicate that 2i slows a conformational change necessary for glutamate unbinding or 2i may need to unbind before glutamate can unbind.
(§3) In addition, we evaluated how glutamate dependence affects inhibition of responses to brief agonist applications similar to phasic glutamate release that occurs at synapses. To do so, we preincubated cells expressing GluN1/GluN2D receptors with the inhibitor 2i and then applied trains of five brief pulses of NMDA (which dissociates more rapidly than glutamate) and glycine from a pressurized micropipette to mimic repetitive synaptic transmission (Figure 4F). We measured the peak amplitude and compared the concentration–response curves for the inhibition of the first and last response (Figure 4G). The initial train of pulses in the absence of drug controls for systematic errors such as internalization of receptors.
(§4) To further evaluate whether 2i followed the law of mass action, we coapplied different concentrations of 2i with glutamate during the steady-state glutamate and glycine responses of GluN1/GluN2D receptors expressed in HEK cells (Figure 4H). […] We also fitted the onset and offset time course of the inhibition produced by compound 2i with a single exponential function (Figure 4J).
(§5) HEK293 cells (HEK, ATCC CRL-1573) were plated on glass coverslips pretreated with 0.1 mg/mL poly-D-lysine and cultured in Dulbecco’s modified Eagle medium (DMEM) plus Glutamax (GIBCO 10569-10) supplemented with 10% fetal bovine serum, 10 U/mL of penicillin, and 10 μg/mL of streptomycin at 37 °C and 5% CO2. The cells were transiently transfected with cDNA encoding rat GluN1, GluN2D, and eGFP at a ratio of 1:1:5 by using the calcium phosphate precipitation method.[48] After 24–48 h following the transfection, the cells were perfused with external recording solution that contained (in mM) 3 KCl, 150 NaCl, 0.01 EDTA, 1.0 CaCl2, 10 HEPES, and 22 D-mannitol (the pH was adjusted to 7.4 with NaOH). The patch electrodes (resistance 3–5 MΩ) were prepared from thin-walled glass micropipettes (TW150F-4, World Precision Instruments, Sarasota, FL) by a dual-stage glass micropipette puller (PC-10, Narishige, Tokyo, Japan) and filled with internal solution containing (in mM) 110 D-gluconate, 110 CsOH, 30 CsCl, 5 HEPES, 4 NaCl, 0.5 CaCl2, 2 MgCl2, 5 BAPTA, 2 NaATP, and 0.3 NaGTP. […]

GluN1/GluN2D [2] = molecular target: T1, GluN1/GluN2D (Rattus norvegicus, UniProt Q62645); assay: as above; assay type: cell-based
T1 sequence (Q62645 28-1323, other chains not shown): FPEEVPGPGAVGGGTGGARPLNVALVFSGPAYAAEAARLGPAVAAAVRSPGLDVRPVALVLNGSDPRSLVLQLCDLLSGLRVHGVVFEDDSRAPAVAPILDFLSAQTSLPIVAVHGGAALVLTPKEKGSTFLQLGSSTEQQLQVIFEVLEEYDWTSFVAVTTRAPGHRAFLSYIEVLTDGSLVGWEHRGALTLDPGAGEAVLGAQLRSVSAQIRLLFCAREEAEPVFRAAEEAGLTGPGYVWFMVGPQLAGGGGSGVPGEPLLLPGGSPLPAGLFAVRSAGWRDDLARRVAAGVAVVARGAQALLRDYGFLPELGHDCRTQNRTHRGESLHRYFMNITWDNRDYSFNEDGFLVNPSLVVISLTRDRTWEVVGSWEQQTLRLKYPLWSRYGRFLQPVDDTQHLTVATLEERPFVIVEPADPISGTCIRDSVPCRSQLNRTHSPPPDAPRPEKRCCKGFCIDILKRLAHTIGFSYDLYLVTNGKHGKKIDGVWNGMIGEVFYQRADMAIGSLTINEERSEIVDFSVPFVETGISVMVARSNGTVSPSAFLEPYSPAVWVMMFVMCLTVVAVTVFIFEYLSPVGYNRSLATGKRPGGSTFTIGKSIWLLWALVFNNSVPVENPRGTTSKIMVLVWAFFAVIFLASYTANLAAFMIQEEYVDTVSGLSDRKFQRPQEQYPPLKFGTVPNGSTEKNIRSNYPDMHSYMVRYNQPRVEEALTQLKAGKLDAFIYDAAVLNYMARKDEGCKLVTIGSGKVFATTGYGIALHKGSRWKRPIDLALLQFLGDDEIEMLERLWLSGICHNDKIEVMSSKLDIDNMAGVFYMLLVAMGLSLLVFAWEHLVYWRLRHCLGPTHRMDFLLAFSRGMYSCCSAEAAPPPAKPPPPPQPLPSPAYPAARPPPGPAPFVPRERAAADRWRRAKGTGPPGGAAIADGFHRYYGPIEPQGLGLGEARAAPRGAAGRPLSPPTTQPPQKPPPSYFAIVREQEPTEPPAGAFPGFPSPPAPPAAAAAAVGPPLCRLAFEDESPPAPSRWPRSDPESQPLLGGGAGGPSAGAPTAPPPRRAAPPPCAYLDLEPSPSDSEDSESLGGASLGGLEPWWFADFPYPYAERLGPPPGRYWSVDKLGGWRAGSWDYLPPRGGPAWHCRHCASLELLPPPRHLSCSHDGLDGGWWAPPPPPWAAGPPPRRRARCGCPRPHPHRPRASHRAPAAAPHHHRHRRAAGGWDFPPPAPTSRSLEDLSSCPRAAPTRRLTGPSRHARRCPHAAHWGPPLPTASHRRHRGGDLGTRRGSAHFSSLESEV
Source text: as §1, §2, §3, §4, §5

Tsc1^± mice = test system: Tsc1^± mice; set-up: method as in PMID 25081057; details: 28 mg/kg IP; heterozygote Tsc1^± mice; cited from earlier work
GluN1/GluN2D [3] = molecular target: T1, GluN1/GluN2D; set-up: GluN2B (NM_012574.1), GluN2C (NM_012575.3), and GluN2D (NM_022797.2) were provided by; expressed in transfected cells; host or cells: Xenopus laevis oocytes (cRNA injection); details: cited from earlier work

Sequence of GluN1/GluN2D (Rattus norvegicus, UniProt P35439+Q62645) (Q62645 28-1323, other chains not shown): as above

koff (GluN1/GluN2D [1]; HEK293, inhibitor preapplied, linear regression of 1/τinhibition vs concentration): 0.19 s⁻¹
IC50 (GluN1/GluN2D [1]; fifth of 5 brief NMDA (500 μM)/glycine (250 μM) pulses at 1 s intervals, read-out: IC50 pulse 5 (95% CI)): 1600 nM
IC50 (GluN1/GluN2D [1]; first of 5 brief NMDA (500 μM)/glycine (250 μM) pulses at 1 s intervals, read-out: IC50 pulse 1 (95% CI)): 4900 nM
Kd (GluN1/GluN2D [1]; inhibitor preapplied, from kON and kOFF, supplement): 400 nM
IC50 (GluN1/GluN2D [1]; peak current response to glutamate, inhibitor preapplied, read-out: IC50 peak (95% CI)): 1400 nM
IC50 (GluN1/GluN2D [1]; steady-state current response to glutamate, inhibitor preapplied, read-out: IC50 steady-state (95% CI)): 720 nM
τdeactivation following glutamate removal (GluN1/GluN2D [2]; 0.3 μM compound, mean ± SEM): 6.6 ± 0.3 s
τdeactivation following glutamate removal (GluN1/GluN2D [2]; 1 μM compound, mean ± SEM): 6.9 ± 0.4 s
τdeactivation following glutamate removal (GluN1/GluN2D [2]; 3 μM compound, mean ± SEM): 8.0 ± 0.4 s
fold-change in IC50 for the peak and steady-state current responses (GluN1/GluN2D [2]; mean ± SEM, compared by ANOVA): 2.1 ± 0.2
IC50 fold higher during peak compared to steady-state (GluN1/GluN2D [2]; ratio of IC50 values): 1.9 fold
IC50 fold higher at first pulse compared to fifth pulse (GluN1/GluN2D [2]; trains of brief agonist applications): 3 fold
Structure (SMILES): Cc1ccc2[nH]c(=O)c(C3=NN(C(=O)CCC(=O)O)C(c4ccc(Br)cc4)C3)c(-c3ccccc3)c2c1 (centres unmarked) [compound 1, reference compound]
effect on seizure burden (Tsc1^± mice): diminished seizure burden
IC50 (GluN1/GluN2D [3]): 2700 nM
